Counter-ions that a name gives are not always drawn.
Columns and labels:
[1] = test system: rat oligodendrocyte progenitor CG4 line; experiment: Differentiation assay on rat oligodendrocyte progenitor CG4 line (HCS, mCherry+); format: cell-based; settings: 1 μM; for CG4 differentiation compared with 9cis-RA positive control: secondary screen of 49 selected compounds, 5 days
Description: Primary validation on CG4 line toxicity and differentiation. An innovative OPC line was developed for fast and reliable high content screening (HCS) of small compounds inducing oligodendrocyte differentiation. The line was genetically engineered by lentiviral transduction of rat CG4 cells (PubMed=1613821; DOI=10.1002/jnr.490310125; Louis J. C., Magal E., Muir D., Manthorpe M., Varon S.; CG-4, a new bipotential glial cell line from rat brain, is capable of differentiating in vitro into either mature oligodendrocytes or type-2 astrocytes. J. Neurosci. Res. 31:193-204(1992) to express mCherry fluorescent reporter (Evercooren, Anne & Avellana-Adalid, V. & Vitry, Sandrine & Nait-Oumesmar, Brahim & Lachapelle, Francois. (1997). Expansion of Oligodendrocyte Progenitors for Myelin Repair. 10.1007/978-1-4615-5949-8_21) in mature oligodendrocytes only, and EGFP at all stage of the oligodendroglial lineage: both the generation of mature oligodendrocytes (wmNl-mCherry) and the morphological changes associated with differentiation (CMV-EGFP) can be therefore monitored in a single assay. mCherry expression occurred only in O4+/GalC+ differentiated oligodendrocytes and GFP was ubiquitously expressed at all developmental stages. The line so obtained was validated using compounds with well-established effects on oligodendrocyte differentiation (cAMP and T3). Cell-based assay was standardized on the HCS platform (ArrayScanXTI, Brain and Spine Institute (Paris), validating the pro-differentiation effects of clemastine^27 and 9cis-retinoic acid.^28 For HCS validation of 274 compounds identified through in silico screen, double-fluo CG4 line cells were plated in 96 well-plates, 6500 cells/cm^2 and left for 24 h in proliferation. The other day, compounds were added (1 μM) for next 5 days of differentiation, with ⅔ medium changed after 3 days. 9-cis Retinoic Acid (9cis-RA; […]) served as a positive control, negative controls were basal (N1) medium and vehicle (basal+0.1% DMSO). Each compound was tested in triplicate and were imaged with ArrayScanXTI system (35 fields/well) after 5 days of differentiation.
FIG. 4 provides a schematic representation of High Content Screening (HCS) validation of the 274 compounds identified through in silico screening using CG4 line. […] In addition, the whole short list of 160 non-toxic compounds were screened using the CG4 high content phenotypic assay to further confirm the data from primary screening and to potentially select additional compounds with pro-myelinating activities. From this screening of the short list, 49 hit compounds were identified that increase differentiation either of CG4 cells or primary OPCs (FIG. 6).

[2] = test system: rat primary OPC cultures; experiment: Differentiation of rat primary OPC into MBP+ OLs; format: cell-based; settings: 96 h, 4 days of differentiation, read-out: MBP+ differentiation (MBP+/SOX10+ OLs plus compounds / plus basal medium)
Experimental: Secondary validation on primary rat OPC differentiation. Re-validation of the best performing compounds promoting OPC differentiation (fold change >1.5) was performed on primary rat OPC cultures in 96 well-plate run in triplicates by triple immunolabeling for CNPase, MBP and SOX10 as a readout. Compounds at […] were added for 4 days of differentiation and then cell cultures were imaged with ArrayScanXTI platform, number of MBP+OLs were quantified by semi-automated software. Basal medium served as a negative control, 9 cis-RA ([…]) was a positive control.
Re-validation of the 49 compounds selected from the short list (160 compounds) using rat primary OPC cultures (compounds tested in triplicates in 3 independent experiments. The secondary validation screen of these compounds performed on rat primary OPC cultures selected 17 best lead compounds with a pro-differentiation activity (MBP+/SOX10+OLs plus compounds/MBP+SOX10+ plus basal medium fold increase) induced a strong differentiation into MBP+OLs (fold increase >1.6). Results are shown in FIG. 7.

[3] = test system: murine cortical neurons (14 DIV); experiment: NMDA-mediated neuroprotective assay (CCK8 viability); format: cell-based, mouse; settings: 1 μM, 3 h pre-treatment, NMDA 8 μM 24 h, p<0.05
Experimental: To assess neuroprotective activity of 160 selected non-toxic compounds on primary murine cortical neurons, obtained as described in the previous paragraph, ([…]), cultures were pre-treated with 1 μM compounds for either 3 or 24 hours, followed by 24 hours chronic stimulation with NMDA (8 μM) to induce neuronal damage. Each test plate included: a negative control (untreated), vehicle-treated control (0.02% vol/vol DMSO), a positive neurotoxic control—staurosporine 0.1 μM, a stressor—NMDA 8 μM, a positive neuroprotective control—NAC 300 μM, and a combination of stressor +neuroprotective molecule (NMDA+NAC). Cell viability was measured with Cell Counting Kit-8 assay compared to NMDA-treated control.
The potential neuroprotective activity of 160 selected non-toxic compounds was evaluated on murine cortical neurons (14 DIV) with either 3 h (FIG. 13) or 24 h compounds pre-treatment (FIG. 14). In assay with 3 h pre-treatment, 17 compounds were identified as potential NMDA-neuroprotective hits (marked with black asterisk in FIG. 13, stat. significant at p<0.05, Kruskal-Wallis test with post-hoc two-stage linear step-up procedure of Benjamini, Krieger and Yekutieli multiple comparison correction).

[4] = test system: mouse cortical neurons; experiment: Morphological integrity evaluation, NMDA 8 μM (MAP2 neurite length and branching); format: cell-based; settings: 3 h pre-treatment, NMDA 8 μM 24 h; Z>0.5 criteria
Experimental: Apart of viability/metabolic readout in NMDA-mediated neurotoxicity assay, a neuronal structural integrity was evaluated by MAP2 staining. Mouse cortical neurons (14 DIV) cultured in MW96 plates were fixed with 4% paraformaldehyde (PFA). Fixed cells were incubated with blocking solution (PBS 1×, donkey serum 5%, Triton 0.1%) for 1-hour, primary antibody (rabbit α-MAP2, 1:250, Millipore) was applied in the same solution overnight at +4° C. […] Nuclei were stained with 4′-6-diamidino-2-phenylindole (DAPI, Roche). Microscopy was performed using ArrayScan™XTI (ThermoFisher) imaging platform. 15 images per well were acquired and analyzed by CellProfiler. Total neurite length and the total number of non-trunk branches were analyzed. Total neurite length and the total number of branching were evaluated from 15 images/well, each compound or control was tested in triplicates. The total neurite length and total number of branches were converted to a standardized Z-score using formula: Xij=((Xij−μ)/σ), where xij is the raw measurement of the compound located in well (i, j), and μ and σ are, respectively, the mean and the standard deviation of all measurements of the plate.^31
The morphological integrity of mouse cortical neurons upon chronic 24 h NMDA (8 μM) exposure with compounds pre-treatment (3 h) in preventive regimen was evaluated. Control (basal), DMSO, N-acetylcysteine (NAC) served as positive controls, while staurosporine and NMDA were negative controls.

Compound	CG4 differentiation compared with 9cis-RA positive control [1]	fold induction at 1 µM [2]	neuroprotection of viability/metabolic activity against NMDA [3]	further results
COc1cc(OC)nc(O[C@H](C(=O)O)C(OC)(c2ccccc2)c2ccccc2)n1	promoting differentiation significantly higher than 9cis-RA positive control	> 1.6		
Nc1ncnc2nc[nH]c12 [Adenine]			hit compounds	preservation of neurite length and network integrity (branching) [4]: preserved both neurite length and the network integrity (branching)
CN1[C@@H]2CC[C@H]1C[C@@H](OC(c1ccccc1)c1ccccc1)C2 [BENZATROPINE]	promoting differentiation significantly higher than 9cis-RA positive control	> 1.6		CG4 differentiation, fold increase relative to control [1]: over 1.5 fold
CCOC(=O)c1cnc2c(cnn2CC)c1NN=C(C)C [Etazolate]		> 1.6		
CC1(C)O[C@@H]2C[C@H]3[C@@H]4C[C@H](F)C5=CC(=O)C=C[C@]5(C)[C@@]4(F)[C@@H](O)C[C@]3(C)[C@]2(C(=O)CO)O1 [Fluocinolone acetonide, Fluocinolone Acetonide]			hit compounds	
CN1[C@@H]2CC[C@H]1C[C@@H](OC(=O)[C@H](CO)c1ccccc1)C2 [Hyoscyamine]			hit compounds	preservation of neurite length and network integrity (branching) [4]: preserved both neurite length and the network integrity (branching)
N[C@@H](CO)C(=O)O [L-Serine]			hit compounds	
CNC(=O)c1cccc2cc(Oc3ccnc4cc(OCC5(N)CC5)c(OC)cc34)ccc12 [LUCITANIB]	promoting differentiation significantly higher than 9cis-RA positive control	> 1.6		
COCCNCc1ccc(-c2cc3nccc(Oc4ccc(NC(=S)NC(=O)Cc5ccc(F)cc5)cc4F)c3s2)nc1 [MGCD-265]		> 1.6		
CN(C(=O)/C=C/c1ccoc1)[C@@H]1CC[C@@]2(O)[C@H]3Cc4ccc(O)c5c4[C@@]2(CCN3CC2CC2)[C@H]1O5 [Nalfurafine hydrochloride]			hit compounds	
FC(F)(F)c1ccc(CNc2ccc(Cc3c[nH]c4ncc(Cl)cc34)cn2)cn1 [PLX-3397]	promoting differentiation significantly higher than 9cis-RA positive control	> 1.6		
Cn1c(=O)c(Oc2ccc(F)cc2F)cc2cnc(NC(CCO)CCO)nc21 [Pamapimod]			hit compounds	
CC(C)(C)c1cc(NC(=O)Nc2ccc(-c3cn4c(n3)sc3cc(OCCN5CCOCC5)ccc34)cc2)no1 [Quizartinib]	promoting differentiation significantly higher than 9cis-RA positive control	> 1.6		
NC(=O)[C@@H]1CC[C@H](c2ccc(OCc3ccccc3F)cc2)N1 [Raxatrigine]			hit compounds	preservation of neurite length and network integrity (branching) [4]: preserved both neurite length and the network integrity (branching)
O=C(Nc1ccccc1Br)N[C@@H]1CCN(c2ccc(C(F)(F)F)cn2)C1 [SB-705498]			hit compounds	
Cc1[nH]c(/C=C2\C(=O)Nc3ccc(F)cc32)c(C)c1C(=O)NC[C@H](O)CN1CCOCC1 [SU14813]		> 1.6		

Source: US20240148745A1, “COMPOUNDS FOR USE IN PROGRESSIVE MULTIPLE SCLEROSIS” (FONDAZIONE CENTRO SAN RAFFAELE, priority 2021, published 2024)
